Test results: the supplement of paper PMC10307832

Tests used:
Experiment in all cases: relative viability (nuclei count vs DMSO), 5 days (fraction); higher = more cells survive
EMC-BAC-2 = test system: EMC-BAC-2
Outline: (§1)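 Lung cancer cell lines, seeded in 1536-well plates, were treated the following day by pin tool with a single drug or with five library-drug doses (not always all listed) in √10 steps on top of a fixed anchor-drug dose. Cells were fixed and nuclei stained in one step after 5 days, and nuclei were counted. Relative viability is the nuclei count for treated wells divided by that for vehicle wells, reported as medians of duplicate plates.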

COR-L23 = test system: COR-L23
Outline: as §1

NCI-H1792 = test system: NCI-H1792
Outline: as §1

A-427 = test system: A-427
Outline: as §1

NCI-H1993 = test system: NCI-H1993
Outline: as §1

SK-LU-1 = test system: SK-LU-1
Outline: as §1

NCI-H2228 = test system: NCI-H2228
Outline: as §1

LXF-289 = test system: LXF-289
Outline: as §1

NCI-H1944 = test system: NCI-H1944
Outline: as §1

ABC-1 = test system: ABC-1
Outline: as §1

LK-2 = test system: LK-2
Outline: as §1

NCI-H2009 = test system: NCI-H2009
Outline: as §1

SK-MES-1 = test system: SK-MES-1
Outline: as §1

NCI-H1793 = test system: NCI-H1793
Outline: as §1

HARA = test system: HARA
Outline: as §1

NCI-H596 = test system: NCI-H596
Outline: as §1

PC-3 [JPC-3] = test system: PC-3 [JPC-3]
Outline: as §1

SW 1573 = test system: SW 1573
Outline: as §1

NCI-H727 = test system: NCI-H727
Outline: as §1

LU99A = test system: LU99A
Outline: as §1

HOP-62 = test system: HOP-62
Outline: as §1

NCI-H3122 = test system: NCI-H3122
Outline: as §1

NCI-H2170 = test system: NCI-H2170
Outline: as §1

C[C@@H]1CN(CC(=O)Nc2ccc3c(c2)Cc2cccc(-c4cc(=O)cc(N5CCOCC5)o4)c2S3)C[C@H](C)O1 + CS(=O)(=O)CCNCc1ccc(-c2ccc3ncnc(Nc4ccc(OCc5cccc(F)c5)c(Cl)c4)c3c2)o1 [Lapatinib] (partner 2 µM)
relative viability (EMC-BAC-2; first compound 0.04 µM): 0.903 | relative viability (EMC-BAC-2; first compound 0.1265 µM): 0.934 | relative viability (EMC-BAC-2; first compound 0.4 µM): 0.775 | relative viability (EMC-BAC-2; first compound 4 µM): 0.827 | relative viability (COR-L23; first compound 0.04 µM): 0.893 | relative viability (COR-L23; first compound 0.1265 µM): 1.08 | relative viability (COR-L23; first compound 0.4 µM): 1.12 | relative viability (COR-L23; first compound 4 µM): 1.05 | relative viability (NCI-H1792; first compound 0.04 µM): 0.824 | relative viability (NCI-H1792; first compound 0.1265 µM): 0.832 | relative viability (NCI-H1792; first compound 0.4 µM): 0.856 | relative viability (NCI-H1792; first compound 4 µM): 0.849 | relative viability (A-427; first compound 0.04 µM): 0.898 | relative viability (A-427; first compound 0.1265 µM): 1.05 | relative viability (A-427; first compound 0.4 µM): 1.18 | relative viability (A-427; first compound 4 µM): 1.01 | relative viability (NCI-H1993; first compound 0.04 µM): 0.862 | relative viability (NCI-H1993; first compound 0.1265 µM): 0.86 | relative viability (NCI-H1993; first compound 0.4 µM): 0.812 | relative viability (NCI-H1993; first compound 4 µM): 0.833 | relative viability (SK-LU-1; first compound 0.04 µM): 0.869 | relative viability (SK-LU-1; first compound 0.1265 µM): 0.959 | relative viability (SK-LU-1; first compound 0.4 µM): 0.877 | relative viability (SK-LU-1; first compound 4 µM): 0.707 | relative viability (NCI-H2228; first compound 0.04 µM): 1.23 | relative viability (NCI-H2228; first compound 0.1265 µM): 1.05 | relative viability (NCI-H2228; first compound 0.4 µM): 0.974 | relative viability (NCI-H2228; first compound 4 µM): 0.618 | relative viability (LXF-289; first compound 0.04 µM): 0.879 | relative viability (LXF-289; first compound 0.1265 µM): 0.962 | relative viability (LXF-289; first compound 0.4 µM): 0.904 | relative viability (LXF-289; first compound 4 µM): 0.835 | relative viability (NCI-H1944; first compound 0.1265 µM): 0.803 | relative viability (NCI-H1944; first compound 0.4 µM): 0.977 | relative viability (NCI-H1944; first compound 4 µM): 0.876 | relative viability (ABC-1; first compound 0.04 µM): 0.964 | relative viability (ABC-1; first compound 0.1265 µM): 1.06 | relative viability (ABC-1; first compound 0.4 µM): 1.22 | relative viability (ABC-1; first compound 4 µM): 1.21 | relative viability (LK-2; first compound 0.1265 µM): 0.938 | relative viability (LK-2; first compound 0.4 µM): 0.936 | relative viability (LK-2; first compound 4 µM): 0.948 | relative viability (NCI-H2009; first compound 0.04 µM): 0.486 | relative viability (NCI-H2009; first compound 0.1265 µM): 0.846 | relative viability (NCI-H2009; first compound 0.4 µM): 0.964 | relative viability (NCI-H2009; first compound 4 µM): 0.687 | relative viability (SK-MES-1; first compound 0.04 µM): 0.463 | relative viability (SK-MES-1; first compound 0.1265 µM): 0.53 | relative viability (SK-MES-1; first compound 0.4 µM): 0.429 | relative viability (SK-MES-1; first compound 4 µM): 0.409 | relative viability (NCI-H1793; first compound 0.04 µM): 0.809 | relative viability (NCI-H1793; first compound 0.1265 µM): 0.743 | relative viability (NCI-H1793; first compound 0.4 µM): 0.734 | relative viability (NCI-H1793; first compound 4 µM): 0.649 | relative viability (HARA; first compound 0.04 µM): 0.732 | relative viability (HARA; first compound 0.1265 µM): 0.613 | relative viability (HARA; first compound 0.4 µM): 0.796 | relative viability (HARA; first compound 4 µM): 0.738 | relative viability (NCI-H596; first compound 0.04 µM): 1.07 | relative viability (NCI-H596; first compound 0.1265 µM): 1.24 | relative viability (NCI-H596; first compound 0.4 µM): 1.06 | relative viability (NCI-H596; first compound 4 µM): 1.03 | relative viability (PC-3 [JPC-3]; first compound 0.04 µM): 0.512 | relative viability (PC-3 [JPC-3]; first compound 0.1265 µM): 0.394 | relative viability (PC-3 [JPC-3]; first compound 0.4 µM): 0.52 | relative viability (PC-3 [JPC-3]; first compound 4 µM): 0.454 | relative viability (SW 1573; first compound 0.04 µM): 1.1 | relative viability (SW 1573; first compound 0.1265 µM): 1.14 | relative viability (SW 1573; first compound 0.4 µM): 1.18 | relative viability (SW 1573; first compound 4 µM): 1.08 | relative viability (NCI-H727; first compound 0.04 µM): 0.9 | relative viability (NCI-H727; first compound 0.1265 µM): 0.801 | relative viability (NCI-H727; first compound 0.4 µM): 0.78 | relative viability (NCI-H727; first compound 4 µM): 0.752 | relative viability (LU99A; first compound 0.04 µM): 0.783 | relative viability (LU99A; first compound 0.1265 µM): 1.15 | relative viability (LU99A; first compound 0.4 µM): 1.08 | relative viability (LU99A; first compound 4 µM): 1.04 | relative viability (HOP-62; first compound 0.04 µM): 0.549 | relative viability (HOP-62; first compound 0.1265 µM): 1.01 | relative viability (HOP-62; first compound 0.4 µM): 1.19 | relative viability (HOP-62; first compound 4 µM): 0.953 | relative viability (NCI-H3122; first compound 0.04 µM): 1.05 | relative viability (NCI-H3122; first compound 0.1265 µM): 1.01 | relative viability (NCI-H3122; first compound 0.4 µM): 1.07 | relative viability (NCI-H3122; first compound 4 µM): 0.988 | relative viability (NCI-H2170; first compound 0.1265 µM): 0.251 | relative viability (NCI-H2170; first compound 0.4 µM): 0.277 | relative viability (NCI-H2170; first compound 4 µM): 0.277
